According to US20260317344A1, “EGFR INHIBITORS FOR TREATING DISEASE” (BLOSSOMHILL THERAPEUTICS, INC., priority 2023, published 2026):

Key:
[1] = target: T1, pEGFR, A431 cells (wildtype EGFR) (Homo sapiens, UniProt P00533); assay: Cellular EGFR phosphorylation assay (LANCE Ultra TR-FRET) in A431 cells; type: cell-based; conditions: 4 hours at 37° C., 40 ng/mL EGF for the final 10 minutes, read-out: A431 pEGFR IC50
T1 construct: pEGFR (Tyr1068) TR-FRET
In short: (§1)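 pEGFR Tyr1068 TR-FRET readout, lysates after 4 h compound exposure (37 °C, 5% CO2); 9-dose 3-fold series. A431 only: EGF 40 ng/mL for last 10 min. IC50 from curve fit.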

EGFR (L858R/T790M/C797S) = EGFR (L858R/T790M/C797S) (Homo sapiens, UniProt P00533, C797S/L858R/T790M); assay: HotSpot radiometric kinase assay, inhibition of EGFR L858R/T790M/C797S mutant; type: biochemical; conditions: 33P ATP, room temperature, 120 m
In short: (§2)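 Radiometric filter-binding format: ATP plus 33P-ATP ([…]) was added about 20 min after compound to kinase and substrate in HEPES pH 7.5 buffer with Mg2+, EGTA, Brij35, BSA, vanadate, DTT and 1% DMSO. After 120 min at room temperature, reactions were spotted on P81 paper and washed in phosphoric acid; IC50 values fitted.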

[2] = target: T2, pEGFR, NCI-H1975 cells (L858R/T790M EGFR) (Homo sapiens, UniProt P00533, L858R/T790M); assay: Cellular EGFR phosphorylation assay (LANCE Ultra TR-FRET) in NCI-H1975 cells; type: cell-based; conditions: 4 hours at 37° C., read-out: H1975 pEGFR IC50
T2 construct: pEGFR (Tyr1068) TR-FRET
In short: as §1

EGFR (L858R) = EGFR (L858R) (Homo sapiens, UniProt P00533, L858R); assay: HotSpot radiometric kinase assay, inhibition of EGFR L858R mutant; type: biochemical; conditions: 33P ATP, room temperature, 120 m
Procedure: (§3) Biochemical Assays for inhibition of wild-type and mutant EGFRs
(§4) Briefly, specific kinase/substrate pairs along with required cofactors were prepared in reaction buffer; 20 mM HEPES pH 7.5, 10 mM […], 1 mM EGTA, 0.02% Brij35, 0.02 mg/ml BSA, 0.1 mM Na3VO4, 2 mM DTT, 1% DMSO. Compounds were delivered into the reaction, followed ~20 minutes later by addition of a mixture of ATP (Sigma, St. Louis MO) and ^33P ATP (Perkin Elmer, Waltham MA) to a final concentration of […]. Reactions were carried out at room temperature for 120 m, followed by spotting of the reactions onto P81 ion exchange filter paper (Whatman Inc., Piscataway, NJ). Unbound phosphate was removed by extensive washing of filters in 0.75% phosphoric acid. […] IC50 values and curve fits were obtained using Prism (GraphPad Software).

EGFR (D770_N771insNPG) = EGFR (D770_N771insNPG) (Homo sapiens, UniProt P00533, INS770NPG); assay: HotSpot radiometric kinase assay, inhibition of EGFR (D770_N771insNPG) mutant; type: biochemical; conditions: 33P ATP, room temperature, 120 m
In short: as §2

EGFR WT = EGFR WT (Homo sapiens, UniProt P00533); assay: HotSpot radiometric kinase assay, inhibition of EGFR WT; type: biochemical; conditions: 33P ATP, room temperature, 120 m
EGFR WT, sequence (P00533 25-1210): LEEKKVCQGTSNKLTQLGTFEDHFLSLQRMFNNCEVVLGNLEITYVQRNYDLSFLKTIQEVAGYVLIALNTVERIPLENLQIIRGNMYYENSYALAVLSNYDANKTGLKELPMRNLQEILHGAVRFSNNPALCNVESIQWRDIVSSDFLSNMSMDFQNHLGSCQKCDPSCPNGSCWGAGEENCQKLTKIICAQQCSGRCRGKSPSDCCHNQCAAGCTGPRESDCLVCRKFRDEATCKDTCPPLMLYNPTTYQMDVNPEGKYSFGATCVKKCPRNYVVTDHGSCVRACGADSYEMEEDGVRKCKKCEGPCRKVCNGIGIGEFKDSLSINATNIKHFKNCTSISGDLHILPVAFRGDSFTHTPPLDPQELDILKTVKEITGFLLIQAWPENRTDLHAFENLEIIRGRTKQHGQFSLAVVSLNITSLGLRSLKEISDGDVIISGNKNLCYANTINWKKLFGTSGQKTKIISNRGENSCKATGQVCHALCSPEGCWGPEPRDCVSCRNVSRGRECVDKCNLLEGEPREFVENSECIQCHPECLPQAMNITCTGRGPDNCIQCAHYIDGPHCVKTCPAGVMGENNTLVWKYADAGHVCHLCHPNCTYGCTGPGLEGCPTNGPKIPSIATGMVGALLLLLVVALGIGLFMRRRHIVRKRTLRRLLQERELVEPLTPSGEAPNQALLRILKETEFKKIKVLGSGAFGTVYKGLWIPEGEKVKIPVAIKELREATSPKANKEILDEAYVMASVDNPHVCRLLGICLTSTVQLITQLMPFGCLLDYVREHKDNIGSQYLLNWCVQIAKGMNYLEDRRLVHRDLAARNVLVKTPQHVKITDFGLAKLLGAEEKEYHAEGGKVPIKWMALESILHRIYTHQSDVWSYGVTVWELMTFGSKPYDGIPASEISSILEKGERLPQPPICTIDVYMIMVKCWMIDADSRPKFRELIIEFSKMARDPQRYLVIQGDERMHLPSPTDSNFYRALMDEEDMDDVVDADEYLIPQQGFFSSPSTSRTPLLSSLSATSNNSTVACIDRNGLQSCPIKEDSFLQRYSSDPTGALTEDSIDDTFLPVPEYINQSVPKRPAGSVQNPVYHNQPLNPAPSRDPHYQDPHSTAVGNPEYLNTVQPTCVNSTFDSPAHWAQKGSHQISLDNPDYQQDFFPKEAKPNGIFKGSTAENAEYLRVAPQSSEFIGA
Procedure: as §3, §4

EGFR (D746-750/C797S) = EGFR (D746-750/C797S) (Homo sapiens, UniProt P00533, C797S/DEL746-750); assay: HotSpot radiometric kinase assay, inhibition of EGFR 746-750/C797S mutant; type: biochemical; conditions: 33P ATP, room temperature, 120 m
In short: as §2

EGFR (L858R/T790M) = EGFR (L858R/T790M) (Homo sapiens, UniProt P00533, L858R/T790M); assay: HotSpot radiometric kinase assay, inhibition of EGFR L858R/T790M mutant; type: biochemical; conditions: 33P ATP, room temperature, 120 m
Procedure: as §3, §4

[3] = tested on: BaF3 cells with engineered EGFR L858R/T790M/C797S; assay: 3-Day CellTiter Glo (CTG) cell proliferation assay, BaF3 EGFR L858R/T790M/C797S; type: cell-based; conditions: Mus musculus, 3-day CTG proliferation, 72 hours
In short: (§5)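 Luminescent ATP read-out (CellTiter-Glo 2.0) after 72 h compound exposure gives IC50 values. BaF3 transgenic cells, one thousand per well, received a nine-dose series and were kept at 37 °C under 5% CO2.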

[4] = target: T3, pEGFR, PC-9 cells (d746-750 EGFR) (Homo sapiens, UniProt P00533, DEL746-750); assay: Cellular EGFR phosphorylation assay (LANCE Ultra TR-FRET) in PC-9 cells; type: cell-based; conditions: 4 hours at 37° C., read-out: PC-9 pEGFR IC50
T3 construct: pEGFR (Tyr1068) TR-FRET
T3 sequence (P00533 with tags, fused parts or gaps DEL746-750): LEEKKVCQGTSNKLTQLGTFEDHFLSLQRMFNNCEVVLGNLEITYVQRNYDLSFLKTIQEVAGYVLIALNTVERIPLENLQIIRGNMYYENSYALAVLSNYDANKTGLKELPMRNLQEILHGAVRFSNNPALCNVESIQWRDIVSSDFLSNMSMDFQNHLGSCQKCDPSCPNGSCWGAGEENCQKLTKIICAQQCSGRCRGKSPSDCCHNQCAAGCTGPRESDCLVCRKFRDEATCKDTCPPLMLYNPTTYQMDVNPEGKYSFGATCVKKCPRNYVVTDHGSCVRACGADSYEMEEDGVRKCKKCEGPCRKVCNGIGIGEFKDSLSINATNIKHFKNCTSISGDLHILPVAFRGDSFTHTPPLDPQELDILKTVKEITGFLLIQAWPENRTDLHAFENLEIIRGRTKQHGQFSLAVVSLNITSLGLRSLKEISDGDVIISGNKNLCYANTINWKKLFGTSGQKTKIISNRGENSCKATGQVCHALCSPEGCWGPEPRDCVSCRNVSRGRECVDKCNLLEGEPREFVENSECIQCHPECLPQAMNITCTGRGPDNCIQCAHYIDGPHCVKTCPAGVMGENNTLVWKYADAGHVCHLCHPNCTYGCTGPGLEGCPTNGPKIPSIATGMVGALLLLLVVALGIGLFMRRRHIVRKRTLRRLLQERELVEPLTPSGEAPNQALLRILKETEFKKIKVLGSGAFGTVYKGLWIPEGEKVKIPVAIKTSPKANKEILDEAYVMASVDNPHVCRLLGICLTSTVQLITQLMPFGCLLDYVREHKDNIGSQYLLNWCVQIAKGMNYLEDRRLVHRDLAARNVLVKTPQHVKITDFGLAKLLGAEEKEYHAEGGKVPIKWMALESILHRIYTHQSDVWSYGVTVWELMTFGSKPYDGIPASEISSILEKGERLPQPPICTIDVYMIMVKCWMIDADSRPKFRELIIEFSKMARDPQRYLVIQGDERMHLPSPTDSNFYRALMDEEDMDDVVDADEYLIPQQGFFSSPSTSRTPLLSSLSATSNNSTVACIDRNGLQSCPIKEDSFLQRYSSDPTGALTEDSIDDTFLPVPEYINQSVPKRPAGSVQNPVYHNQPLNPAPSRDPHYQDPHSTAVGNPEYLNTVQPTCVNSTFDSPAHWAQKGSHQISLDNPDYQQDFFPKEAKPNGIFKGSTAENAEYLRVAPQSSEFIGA
In short: as §1

[5] = tested on: BaF3 cells with engineered EGFR d746-750/T790M; assay: 3-Day CellTiter Glo (CTG) cell proliferation assay, BaF3 EGFR d746-750/T790M; type: cell-based; conditions: Mus musculus; BaF3 EGFR d746-750/T790M cells, 3-day CTG proliferation, 72 hours
In short: as §5

EGFR (D746-750) = EGFR (D746-750) (Homo sapiens, UniProt P00533, DEL746-750); assay: HotSpot radiometric kinase assay, inhibition of EGFR 746-750 mutant; type: biochemical; conditions: 33P ATP, room temperature, 120 m
EGFR (D746-750), sequence (P00533 with tags, fused parts or gaps DEL746-750): as above
In short: as §2

PC-9 cells = assay: 5-Day CellTiter Glo (CTG) cell proliferation assay, PC-9; type: cell-based; conditions: Homo sapiens; PC-9 cells (d746-750 EGFR), 5-day CTG proliferation, 120 hours; read-out: PC-9 IC50
In short: (§6)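 Proliferation of EGFR-driven NSCLC cells was scored as CellTiter-Glo 2.0 luminescence after a 5-day (120 h) incubation with compounds in 9 doses. IC50 values came from the dose-response curves.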

HCC827 cells = assay: 5-Day CellTiter Glo (CTG) cell proliferation assay, HCC827; type: cell-based; conditions: Homo sapiens; HCC827 cells (d746-750 EGFR), 5-day CTG proliferation, 120 hours; read-out: HCC827 IC50
In short: as §6

NCI-H1975 cells = assay: 5-Day CellTiter Glo (CTG) cell proliferation assay, NCI-H1975; type: cell-based; conditions: Homo sapiens; NCI-H1975 cells (L858R/T790M EGFR), 5-day CTG proliferation, 120 hours; read-out: H1975 IC50
In short: as §6

[6] = tested on: BaF3 cells with engineered EGFR L858R/C797S; assay: 3-Day CellTiter Glo (CTG) cell proliferation assay, BaF3 EGFR L858R/C797S; type: cell-based; conditions: Mus musculus, 3-day CTG proliferation, 72 hours
In short: as §5

T1 sequence (P00533 25-1210): as the sequence (P00533 25-1210) above

| IC50 [1] | IC50 (EGFR (L858R/T790M/C797S)) | IC50 [2] | IC50 (EGFR (L858R)) | IC50 (EGFR (D770_N771insNPG)) | IC50 (EGFR WT) | IC50 (EGFR (D746-750/C797S)) | IC50 (EGFR (L858R/T790M)) | IC50 [3] | IC50 [4] | IC50 [5] | IC50 (EGFR (D746-750)) | IC50 (PC-9 cells) | IC50 (HCC827 cells) | IC50 (NCI-H1975 cells) | IC50 [6] | Structure (SMILES) |
| --- | --- | --- | --- | --- | --- | --- | --- | --- | --- | --- | --- | --- | --- | --- | --- | --- |
| 51.9 nM | 0.51 nM | 4.82 nM | 0.46 nM | 0.4 nM | 0.35 nM | 0.27 nM | 0.46 nM | 1.89 nM | 10.8 nM | 0.69 nM | 0.64 nM | – | – | – | – | CCN1Cc2c(c(OC(C)C)nn2CCO)/C=C/c2n[nH]c3cnc(cc23)-c2cnn(C)c2O[C@H](C)C1 [Ex. 10, 2-[(10R,17E)-12-ethyl-8,10-dimethyl-16-[(propan-2-yl)oxy]-2,8,10,11,12,13-hexahydro-14H-5,3-(azenometheno)tripyrazolo[3,4-f:3′,4′-j:4″,3″-n][1,4]oxazacyclopentadecin-14-yl]ethan-1-ol] |
| 14.3 nM | 2.37 nM | 2.63 nM | 0.52 nM | 0.59 nM | 0.36 nM | 1 nM | 0.97 nM | 1.14 nM | 1.85 nM | 0.34 nM | 0.31 nM | 2.01 nM | 0.37 nM | 17.5 nM | 0.22 nM | CCOc1nn(CCO)c2c1/C=C/c1n[nH]c3cnc(cc13)-c1c(C)nn(C)c1O[C@H](C)CN(CC)C2 [Ex. 17, 2-[(10R,17E)-16-ethoxy-12-ethyl-6,8,10-trimethyl-2,8,10,11,12,13-hexahydro-14H-5,3-(azenometheno)tripyrazolo[3,4-f:3′,4′-j:4″,3″-n][1,4]oxazacyclopentadecin-14-yl]ethan-1-ol] |
| 17.9 nM | 0.51 nM | 1.93 nM | 1.88 nM | 1.23 nM | 0.55 nM | 1.02 nM | 1.39 nM | 0.85 nM | 1.24 nM | 0.63 nM | 0.51 nM | 2.97 nM | 0.46 nM | 10.3 nM | 0.13 nM | CCOc1nn([C@@H](C)CO)c2c1/C=C/c1n[nH]c3cnc(cc13)-c1c(C)nn(C)c1OC[C@H](C)N(CC)C2 [Ex. 25, (2S)-2-[(11S,17E)-16-ethoxy-12-ethyl-6,8,11-trimethyl-2,8,10,11,12,13-hexahydro-14H-5,3-(azenometheno)tripyrazolo[3,4-f:3′,4′-j:4″,3″-n][1,4]oxazacyclopentadecin-14-yl]propan-1-ol] |
| 15.8 nM | 2.14 nM | 2.32 nM | 0.29 nM | 0.2 nM | 0.16 nM | 0.83 nM | 0.5 nM | 0.9 nM | 1.69 nM | – | 0.17 nM | 0.63 nM | 0.26 nM | 5.72 nM | 0.14 nM | Cc1nn(CCO)c2c1/C=C/c1n[nH]c3cnc(cc13)-c1c(C)nn(C)c1O[C@@H](C)CN(C(C)C)C2 [Ex. 21, 2-[(10S,17E)-6,8,10,16-tetramethyl-12-(propan-2-yl)-2,8,10,11,12,13-hexahydro-14H-5,3-(azenometheno)tripyrazolo[3,4-f:3′,4′-j:4″,3″-n][1,4]oxazacyclopentadecin-14-yl]ethan-1-ol] |
| 52.8 nM | 0.41 nM | 3 nM | 1.99 nM | 1.23 nM | 1.03 nM | 0.85 nM | 0.46 nM | 1.71 nM | 14.4 nM | 1.16 nM | 0.37 nM | 16.8 nM | 2.33 nM | 33 nM | 2.47 nM | CCOc1nn(CCO)c2c1/C=C/c1n[nH]c3c(C)nc(cc13)-c1cnn(C)c1O[C@@H](C)CN(CC)C2 [Ex. 28, 2-[(10S,17E)-16-ethoxy-12-ethyl-8,10,20-trimethyl-2,8,10,11,12,13-hexahydro-14H-5,3-(azenometheno)tripyrazolo[3,4-f:3′,4′-j:4″,3″-n][1,4]oxazacyclopentadecin-14-yl]ethan-1-ol] |
| 61 nM | 2.57 nM | 8.57 nM | 0.55 nM | 1.48 nM | 0.71 nM | 0.98 nM | 0.81 nM | 5.29 nM | 11.8 nM | – | 0.27 nM | 25.2 nM | 2.89 nM | 96 nM | 3.05 nM | Cc1nn(CCO)c2c1/C=C/c1n[nH]c3cnc(cc13)-c1c(C)nn(C)c1O[C@H](C)CN(C(C)C)C2 [Ex. 20, 2-[(10R,17E)-6,8,10,16-tetramethyl-12-(propan-2-yl)-2,8,10,11,12,13-hexahydro-14H-5,3-(azenometheno)tripyrazolo[3,4-f:3′,4′-j:4″,3″-n][1,4]oxazacyclopentadecin-14-yl]ethan-1-ol] |
| 40.7 nM | 0.44 nM | 3.64 nM | 0.62 nM | 0.42 nM | 0.39 nM | 0.31 nM | 0.43 nM | 1.36 nM | 6.38 nM | – | 0.58 nM | 13.8 nM | 2.25 nM | 22.2 nM | 0.78 nM | CCOc1nn(CCO)c2c1/C=C/c1n[nH]c3cnc(cc13)-c1cnn(C)c1O[C@H](C)CN(C(C)C)C2 [Ex. 12, 2-[(10R,17E)-16-ethoxy-8,10-dimethyl-12-(propan-2-yl)-2,8,10,11,12,13-hexahydro-14H-5,3-(azenometheno)tripyrazolo[3,4-f:3′,4′-j:4″,3″-n][1,4]oxazacyclopentadecin-14-yl]ethan-1-ol] |
| 16.1 nM | 0.43 nM | 5.25 nM | 0.38 nM | 0.23 nM | 0.1 nM | 0.31 nM | 0.44 nM | 0.83 nM | 2.86 nM | – | 0.52 nM | 3.65 nM | 0.25 nM | 3.14 nM | 0.16 nM | CCOc1nn(CCO)c2c1/C=C/c1n[nH]c3cnc(cc13)-c1cnn(C)c1O[C@@H](C)CN(C(C)C)C2 [Ex. 11, 2-[(10S,17E)-16-ethoxy-8,10-dimethyl-12-(propan-2-yl)-2,8,10,11,12,13-hexahydro-14H-5,3-(azenometheno)tripyrazolo[3,4-f:3′,4′-j:4″,3″-n][1,4]oxazacyclopentadecin-14-yl]ethan-1-ol] |
